Active and inactive are the calls of the source. The calls are words filed in the database; no cut-off is given here.
Assays:
[1] = Half life in CD-1 mouse at 5 mg/kg, po measured upto 24 hrs by LC-MS analysis; assay type: ADME, organism-based; settings: in vivo
Aurora kinase B = Aurora kinase B (Homo sapiens, UniProt Q96GD4); experiment: Inhibition of AURORA-B (unknown origin)
[2] = target: Insulin receptor (Homo sapiens) (UniProt P06213); experiment: Inhibition of IR (unknown origin) at 1 uM relative to control
[3] = target: Interleukin-1 receptor-associated kinase 4 (Homo sapiens, UniProt Q9NWZ3); experiment: Inhibition of IRAK4 (unknown origin)
[4] = target: Serine/threonine-protein kinase Chk2 (Homo sapiens) (UniProt O96017); experiment: Inhibition of CHK2 (unknown origin) at 1 uM relative to control
[5] = target: Homeodomain-interacting protein kinase 1 (Homo sapiens) (UniProt Q86Z02); experiment: Inhibition of HIPK1 (unknown origin) at 1 uM relative to control
[6] = target: Ephrin type-A receptor 2 (Homo sapiens) (UniProt P29317); experiment: Inhibition of EphA2 (unknown origin) at 1 uM relative to control
[7] = target: SRSF protein kinase 2 (Homo sapiens) (UniProt P78362); experiment: Inhibition of SRPK2 (unknown origin) at 1 uM relative to control
[8] = target: cGMP-dependent protein kinase 1 (Homo sapiens) (UniProt Q13976); experiment: Inhibition of PKG1 (unknown origin) at 1 uM relative to control
[9] = target: Serine/threonine-protein kinase D2 (Homo sapiens) (UniProt Q9BZL6); experiment: Inhibition of PKD2 (unknown origin) at 1 uM relative to control
[10] = Cmax in CD-1 mouse at 5 mg/kg, po measured upto 24 hrs by LC-MS analysis; assay type: ADME, organism-based; settings: in vivo
Mus musculus [11] = experiment: Antiarthritic activity against collagen-induced arthritis DBA/1J mouse model assessed as reduction in IL-1beta expression at 50 mg/kg, po measured for 4 hrs; assay type: functional, organism-based
Mus musculus [12] = experiment: Antiarthritic activity against collagen-induced arthritis DBA/1J mouse model assessed as reduction in MX2 expression in paw at 50 mg/kg, po measured for 2 weeks by RT-PCR analysis; assay type: functional, organism-based
[13] = target: Mitogen-activated protein kinase 14 (Homo sapiens, UniProt Q16539); experiment: Inhibition of MAPK14 (unknown origin)
[14] = target: Hepatocyte growth factor receptor (Homo sapiens) (UniProt P08581); experiment: Inhibition of Met (unknown origin) at 1 uM relative to control
[15] = target: Protein kinase C beta type (Homo sapiens) (UniProt P05771); experiment: Inhibition of PKCb (unknown origin) at 1 uM relative to control
Homo sapiens [16] = species: Homo sapiens; experiment: Inhibition of PKB (unknown origin) at 1 uM relative to control
Rattus norvegicus = experiment: Antiarthritic activity against collagen-induced arthritis Dark Agouti rat model assessed as reduction in clinical score at 1 to 10 mg/kg, po measured after day 5; assay type: functional, organism-based; settings: dose 1-10 mg/kg, time 5.0 day
[17] = target: Testis-specific serine/threonine-protein kinase 2 (Homo sapiens) (UniProt Q96PF2); experiment: Inhibition of TSSK2 (unknown origin) at 1 uM relative to control
[18] = Clearance in Sprague-Dawley rat at 1 mg/kg, iv measured upto 8 hrs by LC-MS analysis; assay type: ADME, organism-based; settings: in vivo
[19] = target: Vascular endothelial growth factor receptor 1 (Homo sapiens, UniProt P17948); experiment: Inhibition of Flt1 (unknown origin)
Homo sapiens [20] = species: Homo sapiens; experiment: Inhibition of PDGFR (unknown origin) at 1 uM relative to control
[21] = target: Tyrosine-protein kinase ABL1 (Homo sapiens, UniProt P00519); experiment: Inhibition of ABL (unknown origin)
[22] = target: Mitogen-activated protein kinase 11 (Homo sapiens) (UniProt Q15759); experiment: Inhibition of SAPK2b (unknown origin) at 1 uM relative to control
Mus musculus [23] = experiment: Antiarthritic activity against collagen-induced arthritis DBA/1J mouse model assessed as reduction in TNFalpha expression at 50 mg/kg, po measured for 4 hrs; assay type: functional, organism-based
[24] = target: Serine/threonine-protein kinase N2 (Homo sapiens) (UniProt Q16513); experiment: Inhibition of PRK2 (unknown origin) at 1 uM relative to control
[25] = target: Serine/threonine-protein kinase STK11 (Homo sapiens) (UniProt Q15831); experiment: Inhibition of LKB1 (unknown origin) at 1 uM relative to control
[26] = target: Serine/threonine-protein kinase Chk1 (Homo sapiens) (UniProt O14757); experiment: Inhibition of CHK1 (unknown origin) at 1 uM relative to control
[27] = target: Tyrosine-protein kinase Mer (Homo sapiens) (UniProt Q12866); experiment: Inhibition of Mer (unknown origin) at 1 uM relative to control
[28] = target: G protein-coupled receptor kinase 5 (Homo sapiens) (UniProt P34947); experiment: Inhibition of GRK5 (unknown origin) at 1 uM relative to control
[29] = Half life in Sprague-Dawley rat at 1 mg/kg, iv measured upto 8 hrs by LC-MS analysis; assay type: ADME, organism-based; settings: in vivo
[30] = target: Tyrosine-protein kinase ITK/TSK (Homo sapiens) (UniProt Q08881); experiment: Inhibition of Itk (unknown origin) at 1 uM relative to control
[31] = target: Tyrosine-protein kinase SYK (Homo sapiens, UniProt P43405); experiment: Inhibition of SYK (unknown origin)
[32] = target: Tyrosine-protein kinase TXK (Homo sapiens) (UniProt P42681); experiment: Inhibition of Txk (unknown origin) at 1 uM relative to control
[33] = target: Receptor-type tyrosine-protein kinase FLT3 (Homo sapiens) (UniProt P36888); experiment: Inhibition of Flt3 (unknown origin) at 1 uM relative to control
Homo sapiens [34] = species: Homo sapiens; experiment: Inhibition of PhK2 (unknown origin) at 1 uM relative to control
[35] = target: Mast/stem cell growth factor receptor Kit (Homo sapiens, UniProt P10721); experiment: Inhibition of cKIT (unknown origin)
[36] = target: RAF proto-oncogene serine/threonine-protein kinase (Homo sapiens) (UniProt P04049); experiment: Inhibition of c-RAF (unknown origin) at 1 uM relative to control
[37] = target: Serine/threonine-protein kinase 24 (Homo sapiens) (UniProt Q9Y6E0); experiment: Inhibition of MST3 (unknown origin) at 1 uM relative to control
[38] = target: Vascular endothelial growth factor receptor 3 (Homo sapiens, UniProt P35916); experiment: Inhibition of Flt4 (unknown origin) at 1 uM relative to control
Mus musculus [39] = experiment: Antiarthritic activity against collagen-induced arthritis DBA/1J mouse model assessed as reduction in clinical score at 50 mg/kg, po administered twice daily for 14 days; assay type: functional, organism-based; settings: time 14.0 day
[40] = target: Mitogen-activated protein kinase kinase kinase kinase 4 (Homo sapiens, UniProt O95819); experiment: Inhibition of MAP4K4 (unknown origin)
Homo sapiens [41] = species: Homo sapiens; experiment: Inhibition of MRCK (unknown origin) at 1 uM relative to control
[42] = target: MAP kinase-activated protein kinase 2 (Homo sapiens) (UniProt P49137); experiment: Inhibition of MAPK2 (unknown origin) at 1 uM relative to control

Mast/stem cell growth factor receptor Kit, sequence (P10721 whole entry): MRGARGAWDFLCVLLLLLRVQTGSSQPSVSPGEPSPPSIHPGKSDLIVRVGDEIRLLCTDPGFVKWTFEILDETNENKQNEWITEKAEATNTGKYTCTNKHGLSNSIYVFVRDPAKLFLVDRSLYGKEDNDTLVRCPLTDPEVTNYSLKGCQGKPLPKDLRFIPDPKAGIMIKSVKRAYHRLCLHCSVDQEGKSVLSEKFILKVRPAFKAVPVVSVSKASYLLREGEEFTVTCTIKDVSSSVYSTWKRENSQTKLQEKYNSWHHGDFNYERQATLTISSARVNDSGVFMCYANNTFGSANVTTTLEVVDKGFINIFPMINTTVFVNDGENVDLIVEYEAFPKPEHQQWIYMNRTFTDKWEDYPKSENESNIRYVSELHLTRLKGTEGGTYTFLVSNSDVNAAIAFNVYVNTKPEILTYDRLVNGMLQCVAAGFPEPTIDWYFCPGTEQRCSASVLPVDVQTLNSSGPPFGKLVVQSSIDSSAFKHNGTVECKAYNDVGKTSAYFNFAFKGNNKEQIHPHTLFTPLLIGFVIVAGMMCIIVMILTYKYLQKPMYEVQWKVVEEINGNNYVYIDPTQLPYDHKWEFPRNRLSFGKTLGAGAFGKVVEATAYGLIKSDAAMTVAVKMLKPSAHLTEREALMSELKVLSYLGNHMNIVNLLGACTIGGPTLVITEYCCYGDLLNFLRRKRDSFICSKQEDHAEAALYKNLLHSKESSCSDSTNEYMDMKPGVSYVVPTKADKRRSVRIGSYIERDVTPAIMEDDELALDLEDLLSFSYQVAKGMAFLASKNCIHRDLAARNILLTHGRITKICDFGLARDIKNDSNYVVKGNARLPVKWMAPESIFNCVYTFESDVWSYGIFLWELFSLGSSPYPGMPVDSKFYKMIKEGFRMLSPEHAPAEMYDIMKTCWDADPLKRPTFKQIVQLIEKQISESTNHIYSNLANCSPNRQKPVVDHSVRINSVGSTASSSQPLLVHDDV
Mitogen-activated protein kinase 11 (Homo sapiens), sequence (Q15759 whole entry): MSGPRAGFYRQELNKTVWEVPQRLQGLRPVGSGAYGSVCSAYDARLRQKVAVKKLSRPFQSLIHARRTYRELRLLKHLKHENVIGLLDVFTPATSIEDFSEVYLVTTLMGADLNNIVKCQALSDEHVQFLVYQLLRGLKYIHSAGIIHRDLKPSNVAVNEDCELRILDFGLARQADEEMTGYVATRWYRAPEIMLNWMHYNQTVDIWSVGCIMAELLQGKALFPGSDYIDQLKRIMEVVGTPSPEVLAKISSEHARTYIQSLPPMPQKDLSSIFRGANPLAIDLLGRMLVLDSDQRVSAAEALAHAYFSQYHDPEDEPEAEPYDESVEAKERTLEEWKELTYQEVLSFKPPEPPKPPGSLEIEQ
Testis-specific serine/threonine-protein kinase 2 (Homo sapiens), sequence (Q96PF2 whole entry): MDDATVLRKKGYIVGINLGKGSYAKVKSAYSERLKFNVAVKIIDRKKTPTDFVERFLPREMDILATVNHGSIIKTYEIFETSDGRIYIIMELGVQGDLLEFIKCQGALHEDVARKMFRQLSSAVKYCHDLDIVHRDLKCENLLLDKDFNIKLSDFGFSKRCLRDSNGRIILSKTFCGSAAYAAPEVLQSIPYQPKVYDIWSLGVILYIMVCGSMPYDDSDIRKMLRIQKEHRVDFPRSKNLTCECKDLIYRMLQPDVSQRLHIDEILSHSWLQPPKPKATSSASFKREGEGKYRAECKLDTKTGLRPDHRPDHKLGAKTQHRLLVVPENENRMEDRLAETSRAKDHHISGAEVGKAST
Receptor-type tyrosine-protein kinase FLT3 (Homo sapiens), sequence (P36888 whole entry): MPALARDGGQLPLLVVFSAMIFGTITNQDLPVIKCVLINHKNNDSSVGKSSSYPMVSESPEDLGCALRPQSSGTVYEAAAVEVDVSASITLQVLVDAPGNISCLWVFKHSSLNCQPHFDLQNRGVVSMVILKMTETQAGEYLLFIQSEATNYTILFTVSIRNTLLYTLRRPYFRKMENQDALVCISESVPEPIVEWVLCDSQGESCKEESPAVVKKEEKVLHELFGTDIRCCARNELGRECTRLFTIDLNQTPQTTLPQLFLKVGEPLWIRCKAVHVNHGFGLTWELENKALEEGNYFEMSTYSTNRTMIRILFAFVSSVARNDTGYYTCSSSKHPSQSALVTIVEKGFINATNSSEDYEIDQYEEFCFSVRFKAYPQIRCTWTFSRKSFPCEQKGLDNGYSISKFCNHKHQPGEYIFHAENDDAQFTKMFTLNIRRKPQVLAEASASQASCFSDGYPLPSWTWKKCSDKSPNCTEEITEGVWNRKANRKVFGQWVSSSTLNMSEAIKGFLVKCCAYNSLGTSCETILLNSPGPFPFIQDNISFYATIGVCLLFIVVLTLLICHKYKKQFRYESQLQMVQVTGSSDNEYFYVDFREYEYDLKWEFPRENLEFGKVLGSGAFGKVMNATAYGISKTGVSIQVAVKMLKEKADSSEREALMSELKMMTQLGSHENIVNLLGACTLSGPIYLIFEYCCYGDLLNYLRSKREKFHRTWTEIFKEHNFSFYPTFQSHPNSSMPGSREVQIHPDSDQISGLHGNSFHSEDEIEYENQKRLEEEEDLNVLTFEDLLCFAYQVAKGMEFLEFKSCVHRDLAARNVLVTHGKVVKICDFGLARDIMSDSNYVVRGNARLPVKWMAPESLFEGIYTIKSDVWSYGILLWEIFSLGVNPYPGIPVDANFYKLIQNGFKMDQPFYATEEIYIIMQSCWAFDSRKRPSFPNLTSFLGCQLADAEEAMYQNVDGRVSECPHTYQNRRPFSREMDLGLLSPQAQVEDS
Serine/threonine-protein kinase 24 (Homo sapiens), sequence (Q9Y6E0 whole entry, looked up): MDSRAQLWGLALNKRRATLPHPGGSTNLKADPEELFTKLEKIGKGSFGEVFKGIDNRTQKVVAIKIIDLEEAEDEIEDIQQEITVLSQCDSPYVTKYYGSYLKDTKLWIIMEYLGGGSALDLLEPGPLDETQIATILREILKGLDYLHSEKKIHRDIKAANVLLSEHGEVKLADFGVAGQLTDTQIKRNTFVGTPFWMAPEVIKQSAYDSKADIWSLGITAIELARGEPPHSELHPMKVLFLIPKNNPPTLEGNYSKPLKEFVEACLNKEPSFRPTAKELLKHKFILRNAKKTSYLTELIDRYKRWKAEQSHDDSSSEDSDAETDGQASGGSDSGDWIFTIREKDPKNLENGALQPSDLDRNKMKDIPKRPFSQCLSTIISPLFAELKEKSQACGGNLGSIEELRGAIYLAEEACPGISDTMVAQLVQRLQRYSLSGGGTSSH
Insulin receptor (Homo sapiens), sequence (P06213 28-758 limits assumed): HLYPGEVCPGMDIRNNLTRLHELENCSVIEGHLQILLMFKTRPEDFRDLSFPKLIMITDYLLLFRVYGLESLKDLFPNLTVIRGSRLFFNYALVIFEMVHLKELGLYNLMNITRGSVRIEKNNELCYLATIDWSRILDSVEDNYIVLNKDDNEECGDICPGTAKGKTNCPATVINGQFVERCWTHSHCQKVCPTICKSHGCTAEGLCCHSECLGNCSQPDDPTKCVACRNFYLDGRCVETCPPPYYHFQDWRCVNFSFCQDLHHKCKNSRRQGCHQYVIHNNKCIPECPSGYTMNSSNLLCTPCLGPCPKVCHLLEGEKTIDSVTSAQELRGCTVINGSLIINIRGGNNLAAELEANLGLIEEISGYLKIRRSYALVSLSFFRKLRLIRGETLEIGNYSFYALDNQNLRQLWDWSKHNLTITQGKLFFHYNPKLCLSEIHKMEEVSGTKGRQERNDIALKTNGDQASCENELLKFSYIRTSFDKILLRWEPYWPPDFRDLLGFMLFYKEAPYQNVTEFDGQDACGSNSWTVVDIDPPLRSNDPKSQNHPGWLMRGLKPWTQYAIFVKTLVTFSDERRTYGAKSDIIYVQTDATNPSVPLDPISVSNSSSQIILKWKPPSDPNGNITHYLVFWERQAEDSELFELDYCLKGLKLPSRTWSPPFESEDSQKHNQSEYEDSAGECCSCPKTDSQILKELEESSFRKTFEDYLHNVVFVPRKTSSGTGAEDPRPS
Insulin receptor (Homo sapiens), sequence (P06213 763-1382 limits assumed): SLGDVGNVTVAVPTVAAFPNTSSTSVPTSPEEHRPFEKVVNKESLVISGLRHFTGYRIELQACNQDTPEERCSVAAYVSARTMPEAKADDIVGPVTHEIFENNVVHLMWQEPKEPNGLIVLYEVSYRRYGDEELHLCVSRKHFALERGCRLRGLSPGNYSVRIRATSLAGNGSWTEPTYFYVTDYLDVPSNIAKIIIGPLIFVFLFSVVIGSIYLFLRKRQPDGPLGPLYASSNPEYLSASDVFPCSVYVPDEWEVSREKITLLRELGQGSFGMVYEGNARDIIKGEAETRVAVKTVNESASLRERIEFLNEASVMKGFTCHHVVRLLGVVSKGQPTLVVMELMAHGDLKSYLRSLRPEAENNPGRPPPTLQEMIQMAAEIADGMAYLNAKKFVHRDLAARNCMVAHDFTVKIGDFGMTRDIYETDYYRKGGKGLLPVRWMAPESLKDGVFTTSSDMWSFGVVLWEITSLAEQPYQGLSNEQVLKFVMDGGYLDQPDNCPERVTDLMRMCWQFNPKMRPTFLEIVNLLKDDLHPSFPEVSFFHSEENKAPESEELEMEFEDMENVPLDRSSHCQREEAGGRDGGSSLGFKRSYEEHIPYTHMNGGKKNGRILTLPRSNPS
Mitogen-activated protein kinase 14, sequence (Q16539 whole entry): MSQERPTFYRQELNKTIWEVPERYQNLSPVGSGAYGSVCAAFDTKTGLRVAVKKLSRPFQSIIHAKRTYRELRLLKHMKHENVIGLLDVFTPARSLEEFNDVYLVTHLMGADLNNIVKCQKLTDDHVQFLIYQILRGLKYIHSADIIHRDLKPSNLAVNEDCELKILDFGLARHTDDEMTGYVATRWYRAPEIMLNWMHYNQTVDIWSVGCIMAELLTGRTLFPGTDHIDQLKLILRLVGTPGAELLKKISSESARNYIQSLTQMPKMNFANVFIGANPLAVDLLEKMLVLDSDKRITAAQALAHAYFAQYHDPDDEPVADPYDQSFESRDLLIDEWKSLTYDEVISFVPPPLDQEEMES

SMILES: O=C(Nc1nc2cccc(-c3ccc(CN4CCS(=O)(=O)CC4)cc3)n2n1)C1CC1 [FILGOTINIB]
- half-life [1]: 1.7 h
- IC50 (Aurora kinase B): > 10 µM
- inhibition [2]: -1%
- IC50 [3]: > 10 µM
- inhibition [4]: 6%
- inhibition [5]: -8%
- inhibition [6]: -9%
- inhibition [7]: -10%
- inhibition [8]: -1%
- inhibition [9]: -10%
- Cmax [10]: 920 ng/mL
- Activity (Mus musculus [11]): Active
- Activity (Mus musculus [12]): Active
- IC50 [13]: > 10 µM
- inhibition [14]: -3%
- inhibition [15]: -2%
- inhibition (Homo sapiens [16]): -3%
- Activity (Rattus norvegicus): Active
- inhibition [17]: -5%
- clearance [18]: 23.3 mL/min/kg
- IC50 [19]: 1.33 µM
- inhibition (Homo sapiens [20]): 2%
- IC50 [21]: 2.3 µM
- inhibition [22]: -4%
- Activity (Mus musculus [23]): Active
- inhibition [24]: -8%
- inhibition [25]: -5%
- inhibition [26]: 10%
- inhibition [27]: 44%
- inhibition [28]: -10%
- half-life [29]: 1.6 h
- inhibition [30]: -4%
- IC50 [31]: > 10 µM
- inhibition [32]: 14%
- inhibition [33]: 58%
- inhibition (Homo sapiens [34]): -7%
- IC50 [35]: > 10 µM
- inhibition [36]: -4%
- inhibition [37]: 0%
- inhibition [38]: 77%
- Activity (Mus musculus [39]): Active
- IC50 [40]: > 10 µM
- inhibition (Homo sapiens [41]): -3%
- inhibition [42]: 0%
